The results in this text go back to US20230248638A1, “A PERSONAL CARE COMPOSITION COMPRISING ATRACTYLENOLIDE-I OR A SOURCE THEREOF” (Conopco, Inc., d/b/a UNILEVER, priority 2020, published 2023).

For this assay, the system named is Normal human epidermal melanocytes (NHEM). The assay is described as follows: Melanin content quantification in melanocytes. The class given is cell-based. Particulars: 72 hours treatment, concentration as in Treatment column, melanin normalized to relative cell viability. On the procedure:
Normal human epidermal melanocytes (NHEM) (Biocell, Xi'an, China) were grown in melanocyte growth medium (MGM, Promocell, Germany) with human melanocyte growth supplement (Promocell, Germany). NHEM cells were seeded at a density of 4×10^4 cells in 500 μL MGM/well in a 24-well plate and incubated for 48 hours in an incubator (Thermo Scientific, Model 3111) at 37° C. with 5% CO2. After 48 hours, media was replaced with fresh media containing test samples (as per Table 1) for the following 72 hours.
After CCK8 absorbance readings were obtained, cells were lysed by lysis buffer at 60° C. for 1 hr. Then, 50 μL cell lysate was transferred to a new 96-well plate and absorbance was measured at 405 nm using TECAN plate reader. Serial dilutions of pure melanin were prepared as references.
The melanin content was calculated from the melanin standard curve. The melanin concentrations (μg/mL) were then normalized to the relative cell viability. The melanin inhibition rates were then calculated using the following equation: […]

In the case of `C=C1CCC[C@]2(C)C=C3OC(=O)C(C)=C3C[C@@H]12` [D, Atractylenolide -1], the “Melanin inhibition rate (% inhibition)” value was found to be 7.8 ± 2.80 % inhibition.

As for `CCCCCCC(O)CCCCCCCCCCC(=O)O` (centres unmarked) [Example B, 12 hydroxystearic acid], the “Melanin inhibition rate (% inhibition)” value amounted to 5.6 ± 3.03 % inhibition.
